Experimental data reported in PMC12677607, “Identification of a Pair of Linear or Cyclic Naturally Inspired Bifunctional Lipopeptide Antibiotics That Overcome Antimicrobial Resistance” (Advanced Science, 2025).
Values after ≈ are worked out from the molar mass of the structure shown. Bridge positions count the residues as written; N and C are the ends. Square brackets hold non-standard residues; d marks the D form. Peptide text beside a SMILES is read from it. * marks the point of attachment. Myristoyl = CCCCCCCCCCCCCC(=O)*; dOrn = NCCC[C@@H](N)C(=O)O; Orn = NCCC[C@H](N)C(=O)O; Dab = NCC[C@H](N)C(=O)O; Dap = NC[C@H](N)C(=O)O

Assays:
[1] = tested on: Candida albicans ATCC 10231; experiment: MIC assay (YPD broth); assay type: cell-based; conditions: for MIC (μg/mL) C. albicans ATCC 10231: ATCC 10231, 16 h
Procedure: (§1) All MIC assays were performed two independent times (n = 2) in 96‐well plates using a broth micro‐dilution method. The lowest concentration of that inhibited visible microbial growth was recorded as the MIC value.
(§2) For fungal strains, overnight cultures were diluted 2000‐fold in YPD broth. 100 µL of diluted cells was mixed with 100 µL of YPD broth containing each peptide ranging from […] 64 to 0.125 µg mL^−1 at 2‐fold serial dilutions.

[2] = tested on: Streptococcus pyogenes ATCC 19615; experiment: microbe, parasite or virus in culture; assay type: cell-based; conditions: for MIC (μg/mL) S. pyogenes ATCC 19615: ATCC 19615, 16 h
Procedure: as §1
(§3) For most of bacterial strains, overnight cultures were diluted 5000‐fold in LB broth. For E. faecium and S. aureus, overnight cultures were diluted 1000‐ and 10000‐fold in LB broth, respectively. 100 µL of diluted cells was mixed with 100 µL of LB broth containing each peptide ranging from 64 to 0.125 µg mL^−1 at 2‐fold serial dilutions.

[3] = tested on: Klebsiella pneumoniae CRKP 5452; experiment: microbe, parasite or virus in culture; assay type: cell-based; conditions: for MIC (μg/mL) K. pneumoniae CRKP 5452: CRKP 5452, 16 h
Procedure: as §1, §3

[4] = tested on: Acinetobacter baumannii 1104008; experiment: microbe, parasite or virus in culture; assay type: cell-based; conditions: for MIC (μg/mL) A. baumannii 1104008: 1104008, 16 h
Procedure: as §1, §3

[5] = tested on: Staphylococcus aureus USA300; experiment: microbe, parasite or virus in culture; assay type: cell-based; conditions: for MIC (μg/mL) S. aureus USA300: USA300, 16 h
Procedure: as §1, §3

HeLa cells = experiment: Cytotoxicity assay (CCK-8); assay type: cell-based, human; conditions: 48 h
Procedure: The cytotoxicity of each synAQU peptide was assessed using a cell counting kit‐8 (CCK‐8) assay. HeLa cells were first seeded in a 96‐well flat‐bottom microtiter plate with a density of ∼5000 cells per well and incubated in the DMEM medium supplemented with 10% FBS at 37 °C with 5% CO2 for 24 h. […] All cytotoxicity experiments were done in triplicate (n = 3) and repeated two independent times (n = 2).

[6] = tested on: four Gram-negative bacteria, four Gram-positive bacteria, and one fungal pathogen; experiment: Initial antimicrobial assay of 17 synAQUs; assay type: cell-based; conditions: MIC up to 64 µg mL^−1, Figure 3a
Procedure: as §1, §3, §2

Enterococcus faecalis 28 = experiment: microbe, parasite or virus in culture; assay type: cell-based; conditions: 28, 16 h
Procedure: as §1, §3

[7] = tested on: Staphylococcus aureus ATCC 6538; experiment: microbe, parasite or virus in culture; assay type: cell-based; conditions: ATCC 6538, 16 h
Procedure: as §1, §3

[8] = tested on: Vibrio alginolyticus XSBZ14; experiment: microbe, parasite or virus in culture; assay type: cell-based; conditions: 16 h
Procedure: as §1, §3

[9] = tested on: Streptococcus mutans ATCC 25175; experiment: microbe, parasite or virus in culture; assay type: cell-based; conditions: ATCC 25175, 16 h
Procedure: as §1, §3

[10] = tested on: Acinetobacter baumannii ATCC 19606; experiment: microbe, parasite or virus in culture; assay type: cell-based; conditions: ATCC 19606, 16 h
Procedure: as §1, §3

[11] = tested on: Salmonella typhimurium LXX; experiment: microbe, parasite or virus in culture; assay type: cell-based; conditions: murium LXX, 16 h
Procedure: as §1, §3

[12] = tested on: Pseudomonas aeruginosa ATCC 9027; experiment: microbe, parasite or virus in culture; assay type: cell-based; conditions: ATCC 9027, 16 h
Procedure: as §1, §3

[13] = tested on: Staphylococcus aureus Newman; experiment: microbe, parasite or virus in culture; assay type: cell-based; conditions: Newman, 16 h
Procedure: as §1, §3

[14] = tested on: Acinetobacter baumannii ATCC 17978; experiment: microbe, parasite or virus in culture; assay type: cell-based; conditions: ATCC 17978, 16 h
Procedure: as §1, §3

[15] = tested on: Enterococcus faecium 35682; experiment: microbe, parasite or virus in culture; assay type: cell-based; conditions: 35682, 16 h
Procedure: as §1, §3

[16] = tested on: Pseudomonas aeruginosa PAO1; experiment: microbe, parasite or virus in culture; assay type: cell-based; conditions: PAO1, 16 h
Procedure: as §1, §3

[17] = tested on: Klebsiella pneumoniae CRKP HS11286; experiment: microbe, parasite or virus in culture; assay type: cell-based; conditions: CRKP HS11286, 16 h
Procedure: as §1, §3

[18] = tested on: Acinetobacter baumannii P53; experiment: microbe, parasite or virus in culture; assay type: cell-based; conditions: Table S11; LB broth, 37 °C, 16 h, n = 2
Procedure: as §1, §3

[19] = tested on: Salmonella enterica ATCC 14028; experiment: microbe, parasite or virus in culture; assay type: cell-based; conditions: ATCC 14028, 16 h
Procedure: as §1, §3

[20] = tested on: Klebsiella pneumoniae NCTC 5056; experiment: microbe, parasite or virus in culture; assay type: cell-based; conditions: NCTC 5056, 16 h
Procedure: as §1, §3

[21] = tested on: Staphylococcus aureus ATCC 25923; experiment: microbe, parasite or virus in culture; assay type: cell-based; conditions: ATCC 25923, 16 h
Procedure: as §1, §3

[22] = tested on: Klebsiella pneumoniae ATCC 13883; experiment: microbe, parasite or virus in culture; assay type: cell-based; conditions: ATCC 13883, 16 h
Procedure: as §1, §3

[23] = tested on: Enterococcus faecalis ATCC 29212; experiment: microbe, parasite or virus in culture; assay type: cell-based; conditions: ATCC 29212, 16 h
Procedure: as §1, §3

Enterococcus faecalis 26 = experiment: microbe, parasite or virus in culture; assay type: cell-based; conditions: 26, 16 h
Procedure: as §1, §3

[24] = tested on: Candida albicans ATCC 64550; assay type: cell-based; conditions: ATCC 64550, 16 h
Procedure: as §1, §2

Shigella Castellani LXX = experiment: MIC assay (broth micro-dilution); assay type: cell-based; conditions: Table S11; LB broth, 37 °C, 16 h, n = 2
Procedure: as §1, §3

B. subtilis ATCC 23857 = experiment: MIC assay (broth micro-dilution); assay type: cell-based; conditions: Table S11; LB broth, 37 °C, 16 h, n = 2
Procedure: as §1, §3

[25] = Table S11, LB broth, 37 °C, 16 h, n = 2

CCCCCCCCCCCCCC(=O)N[C@H](C)C(=O)N[C@H](C)C(=O)N[C@H](Cc1ccccc1)C(=O)N[C@H](C(=O)N[C@@H](CCCNC(=N)N)C(=O)O)[C@@H](C)O [synAQU1-L] (Myristoyl-[dA][dA][dF]TR-OH)
MIC (μg/mL) C. albicans ATCC 10231 [1]: > 64 µg/mL | MIC (μg/mL) S. pyogenes ATCC 19615 [2]: > 64 µg/mL | MIC (μg/mL) K. pneumoniae CRKP 5452 [3]: > 64 µg/mL | MIC (μg/mL) A. baumannii 1104008 [4]: > 64 µg/mL | MIC (μg/mL) S. aureus USA300 [5]: > 64 µg/mL | MIC (μg/mL) Hela (HeLa cells): > 64 µg/mL | activity against all nine tested strains [6]: not active

CCCCCCCCCCCCCC(=O)N[C@@H](CN)C(=O)N[C@@H]1C(=O)N[C@@H](CC(C)C)C(=O)N[C@@H](CO)C(=O)N[C@@H](CCN)C(=O)N[C@@H](CN)C(=O)N[C@@H](Cc2ccccc2)C(=O)N[C@@H]([C@@H](C)CC)C(=O)N[C@@H](CCCN)C(=O)N[C@@H](CC(N)=O)C(=O)N[C@@H](Cc2ccccc2)C(=O)O[C@@H]1C [synAQU5-C2] (Myristoyl-[Dap]TLS[Dab][Dap]FI[Orn]NF; ester 2-C)
MIC (μg/mL) C. albicans ATCC 10231 [1]: > 64 µg/mL | MIC (μg/mL) S. pyogenes ATCC 19615 [2]: > 64 µg/mL | MIC (μg/mL) K. pneumoniae CRKP 5452 [3]: > 64 µg/mL | MIC (μg/mL) A. baumannii 1104008 [4]: > 64 µg/mL | MIC (μg/mL) S. aureus USA300 [5]: > 64 µg/mL | MIC (μg/mL) Hela (HeLa cells): > 64 µg/mL | activity against all nine tested strains [6]: not active

CCCCCCCCCCCCCC(=O)N[C@@H](CCCN)C(=O)N[C@H](Cc1ccc(O)cc1)C(=O)N[C@@H](C(=O)N[C@@H](C(=O)N[C@H](CCCN)C(=O)N[C@@H](CCCN)C(=O)N[C@@H](C(=O)N[C@H](C(=O)N[C@@H](CC(C)C)C(=O)N[C@H](CCCN)C(=O)N[C@H](C(=O)N[C@@H](C)C(=O)O)[C@@H](C)O)[C@@H](C)CC)C(C)C)[C@H](C)O)C(C)C [synAQU6-L] (Myristoyl-[Orn][dY][dV][dT][dOrn][Orn][dV]IL[dOrn]TA-OH)
MIC Candida albicans ATCC 10231 ([1]; Table S11, YPD broth, 30 °C, 16 h, n = 2): > 64 µg/mL | MIC Streptococcus pyogenes ATCC 19615 [2, 25]: 2 µg/mL (≈ 1.29 µM) | MIC Klebsiella pneumoniae CRKP 5452 [3, 25]: > 64 µg/mL | MIC Enterococcus faecalis 28 (Enterococcus faecalis 28): > 64 µg/mL | MIC Staphylococcus aureus ATCC 6538 [7]: 32 µg/mL (≈ 20.7 µM) | MIC Vibrio alginolyticus XSBZ14 [8]: > 64 µg/mL | MIC Streptococcus mutans ATCC 25175 [9]: 4 µg/mL (≈ 2.59 µM) | MIC Acinetobacter baumannii ATCC 19606 [10]: > 64 µg/mL | MIC Salmonella typhimurium LXX [11]: > 64 µg/mL | MIC Pseudomonas aeruginosa ATCC 9027 [12]: 32 µg/mL (≈ 20.7 µM) | MIC Staphylococcus aureus Newman [13]: > 64 µg/mL | MIC Acinetobacter baumannii ATCC 17978 [14]: 32 µg/mL (≈ 20.7 µM) | MIC Enterococcus faecium 35682 [15]: > 64 µg/mL | MIC Pseudomonas aeruginosa PAO1 [16]: > 64 µg/mL | MIC Klebsiella pneumoniae CRKP HS11286 [17]: > 64 µg/mL | MIC Acinetobacter baumannii P53 [18]: > 64 µg/mL | MIC Salmonella enterica ATCC 14028 [19]: > 64 µg/mL | MIC Klebsiella pneumoniae NCTC 5056 [20]: > 64 µg/mL | MIC Staphylococcus aureus ATCC 25923 [21]: > 64 µg/mL | MIC Klebsiella pneumoniae ATCC 13883 [22]: > 64 µg/mL | MIC Enterococcus faecalis ATCC 29212 [23]: > 64 µg/mL | MIC Acinetobacter baumannii 1104008 [4, 25]: > 64 µg/mL | MIC Staphylococcus aureus USA300 [5, 25]: > 64 µg/mL | MIC Enterococcus faecalis 26 (Enterococcus faecalis 26): 4 µg/mL (≈ 2.59 µM) | MIC Candida albicans ATCC 64550 [24]: > 64 µg/mL | MIC Shigella Castellani LXX (Shigella Castellani LXX): > 64 µg/mL | MIC Bacllussubtilis ATCC 23857 (B. subtilis ATCC 23857): 8 µg/mL (≈ 5.17 µM)

CCCCCCCCCCCCCC(=O)N[C@@H](CCCCN)C(=O)N[C@@H](CCCNC(=N)N)C(=O)N[C@@H](CC(C)C)C(=O)N[C@@H](C)C(=O)N[C@@H](CC(C)C)C(=O)N[C@@H]1C(=O)N[C@@H](CC(=O)O)C(=O)N[C@@H](CC(=O)O)C(=O)N[C@@H](C(C)C)C(=O)N[C@@H](CC(N)=O)C(=O)N[C@@H](C(C)C)C(=O)N[C@H](Cc2ccccc2)C(=O)N[C@@H](CC(N)=O)C(=O)O[C@@H]1C [synAQU7-C6] (Myristoyl-KRLALTDDVNV[dF]N; ester 6-C)
MIC (μg/mL) C. albicans ATCC 10231 [1]: > 64 µg/mL | MIC (μg/mL) S. pyogenes ATCC 19615 [2]: > 64 µg/mL | MIC (μg/mL) K. pneumoniae CRKP 5452 [3]: > 64 µg/mL | MIC (μg/mL) A. baumannii 1104008 [4]: > 64 µg/mL | MIC (μg/mL) S. aureus USA300 [5]: > 64 µg/mL | MIC (μg/mL) Hela (HeLa cells): > 64 µg/mL | activity against all nine tested strains [6]: not active

CCCCCCCCCCCCCC(=O)N[C@@H](CCCCN)C(=O)N[C@@H](CCCNC(=N)N)C(=O)N[C@@H](CC(C)C)C(=O)N[C@@H](C)C(=O)N[C@@H](CC(C)C)C(=O)N[C@H](C(=O)N[C@@H](CC(=O)O)C(=O)N[C@@H](CC(=O)O)C(=O)N[C@H](C(=O)N[C@@H](CC(N)=O)C(=O)N[C@H](C(=O)N[C@H](Cc1ccccc1)C(=O)N[C@@H](CC(N)=O)C(=O)O)C(C)C)C(C)C)[C@@H](C)O [synAQU7-L] (Myristoyl-KRLALTDDVNV[dF]N-OH)
MIC (μg/mL) C. albicans ATCC 10231 [1]: > 64 µg/mL | MIC (μg/mL) S. pyogenes ATCC 19615 [2]: > 64 µg/mL | MIC (μg/mL) K. pneumoniae CRKP 5452 [3]: > 64 µg/mL | MIC (μg/mL) A. baumannii 1104008 [4]: > 64 µg/mL | MIC (μg/mL) S. aureus USA300 [5]: > 64 µg/mL | MIC (μg/mL) Hela (HeLa cells): > 64 µg/mL | activity against all nine tested strains [6]: not active
